According to patent publication US20230295234A1, “ANTIMICROBIAL PEPTIDOMIMETICS” (SPEXIS AG, priority 2020, published 2023):
Read-outs that look alike come from different tables or passages of the source. Peptide text beside a SMILES is read from it.

How the values were obtained:
[1] = test system: Escherichia coli ATCC 25922
Summary of the method: (§1)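 Standardized inocula (0.5 McFarland in saline, then diluted in MHII broth to approximately 5×10^5 CFU/mL) were exposed to two-fold dilution series of each peptide in the presence of polysorbate 80 (0.002% final).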

[2] = test system: Klebsiella pneumoniae SSI3010
Summary of the method: as §1

[3] = test system: Escherichia coli MCR-1 Af 45
Summary of the method: as §1

[4] = test system: human red blood cells (hRBC); assay: Hemolysis of human red blood cells; type: cell-based
Summary of the method: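 Percent hemolysis is OD540 of peptide-treated supernatant relative to water-lysed cells. Each peptide was tested at 200 μg/mL against 20% (v/v) washed human erythrocytes. Incubation was 1 h at 37 °C, 300 rpm.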

[5] = Mueller-Hinton broth II, 18-20 hours at 35° C.

## CC[C@H](C)[C@H](NC(=O)[C@@H]1C[C@@H](N)CN1C(=O)[C@@H](NC(=O)[C@@H]1C[C@@H](O)CN1C(=O)[C@H](CCCCN)NC(=O)[C@@H](N)CCCCN)C(C)C)C(=O)N[C@H](C(=O)N[C@@H](Cc1ccc(O)cc1)C(=O)N[C@@H]1C(=O)N[C@@H](CC(N)=O)C(=O)N[C@@H](CCCNC(=N)N)C(=O)N[C@@H](CCN)C(=O)N[C@@H]([C@@H](C)O)C(=O)N[C@H](CCN)C(=O)N[C@@H](CCCCN)C(=O)N[C@H](C(=O)N[C@@H](CCN)C(=O)N[C@@H](CCCNC(=N)N)C(=O)N[C@@H](Cc2ccc(O)cc2)C(=O)O)CSSC1(C)C)[C@@H](C)O [Example 125, Lys-Lys-Hyp-Val-Pro((4R)NH2)-Ile-Thr-Tyr-Pen-Asn-Arg-Dab-Thr-^DDab-Lys-Cys-Dab-Arg-Tyr] (HELM PEPTIDE1{K.K.[Hyp].V.[N[C@@H]1C[C@@H](C(=O)[*:2])N([*:1])C1].I.T.Y.[Pen].N.R.[Dab].T.[NCC[C@@H](N[*:1])C(=O)[*:2]].K.C.[Dab].R.Y}$PEPTIDE1,PEPTIDE1,9:R3-16:R3$$$V2.0)
[1]; ATCC 25922
  Escherichia coli ATCC 25922 MIC: ≤0.03125 µg/mL
[2]; SSI3010
  Klebsiella pneumoniae SSI3010 MIC: 0.0625 µg/mL
[3]; MCR-1 Af 45
  Escherichia coli MCR-1 Af 45 MIC: 0.0625 µg/mL
[4]; red cells of human, 1 h
  Hemolysis at 0.2 g/L: 0%

## CCCC[C@H](NC(=O)[C@H](CCCNC(=N)N)NC(=O)[C@H](CCN)NC(=O)[C@@H]1CSSC(C)(C)[C@H](NC(=O)[C@H](Cc2ccc(O)cc2)NC(=O)[C@@H](NC(=O)[C@@H](NC(=O)[C@@H]2C[C@@H](N)CN2C(=O)[C@@H](N)C(C)C)[C@@H](C)CC)[C@@H](C)CC)C(=O)N[C@@H](CC(N)=O)C(=O)N[C@@H](CCCNC(=N)N)C(=O)N[C@@H](CCCNC(=N)N)C(=O)N[C@@H]([C@@H](C)O)C(=O)N[C@H](CCN)C(=O)N[C@@H](CCCCN)C(=O)N1)C(=O)O [Example 135] (HELM PEPTIDE1{V.[N[C@@H]1C[C@@H](C(=O)[*:2])N([*:1])C1].I.I.Y.[Pen].N.R.R.T.[NCC[C@@H](N[*:1])C(=O)[*:2]].K.C.[Dab].R.[Nle]}$PEPTIDE1,PEPTIDE1,6:R3-13:R3$$$V2.0)
[1]; [5]
  Escherichia coli ATCC 25922 MIC: 0.0625 µg/mL
[2]; [5]
  Klebsiella pneumoniae SSI3010 MIC: 0.125 µg/mL
[3]; [5]
  Escherichia coli MCR-1 Af 45 MIC: 0.0625 µg/mL
[4]; 20% hRBC, 1 h at 37° C.
  Hemolysis at 0.2 g/L: 0%

## CC[C@H](C)[C@H](NC(=O)[C@@H](NC(=O)[C@@H]1CCCN1C(=O)[C@@H](NC(=O)[C@@H]1CCCN1C(=O)[C@@H](C)NC(=O)[C@@H](N)CCCCN)C(C)C)[C@@H](C)CC)C(=O)N[C@@H](Cc1ccc(O)cc1)C(=O)N[C@@H]1C(=O)N[C@@H](CC(N)=O)C(=O)N[C@@H](CCCNC(=N)N)C(=O)N[C@@H](CCN)C(=O)N[C@@H]([C@@H](C)O)C(=O)N[C@H](CCN)C(=O)N[C@@H](CCCCN)C(=O)N[C@H](C(=O)N[C@@H](CCN)C(=O)N[C@@H](CCCNC(=N)N)C(=O)N[C@@H](Cc2ccc(O)cc2)C(=O)O)CSSC1(C)C [Example 90, Lys-^DAla-Pro-Val-Pro-Ile-Ile-Tyr-Pen-Asn-Arg-Dab-Thr-^DDab-Lys-Cys-Dab-Arg-Tyr] (HELM PEPTIDE1{K.[dA].P.V.P.I.I.Y.[Pen].N.R.[Dab].T.[NCC[C@@H](N[*:1])C(=O)[*:2]].K.C.[Dab].R.Y}$PEPTIDE1,PEPTIDE1,9:R3-16:R3$$$V2.0)
[1]; ATCC 25922
  Escherichia coli ATCC 25922 MIC: 0.25 µg/mL
[2]; SSI3010
  Klebsiella pneumoniae SSI3010 MIC: 0.125 µg/mL
[3]; MCR-1 Af 45
  Escherichia coli MCR-1 Af 45 MIC: 0.0625 µg/mL
[4]; red cells of human, 1 h
  Hemolysis at 0.2 g/L: 0%
